From patent publication US20100240594A1, “TARGETED DELIVERY OF CHEMOTHERAPEUTIC AGENTS” (Burnham Institute for Medical Research, priority 2009, published 2010)

Tested on: pre-established subcutaneous PC3 tumors
Assay: Tumor growth in PC3 tumor-bearing mice treated i.v. twice a week
Format: in vivo, SCID-beige mice
Settings: i.v. twice weekly from day 19 for ~3 weeks; taxol 5 mg/Kg, doxorubicin 2 mg/Kg, YSA conjugates at 1 and 5 fold molar equivalents of the parent drug dose
Experimental: Tumor sizes were measured and averages +/−SE are shown. The data in (A) and (B) are from the same experiment and share the same control.

SMILES | tumor growth inhibition compared with vehicle control
CC(=O)O[C@H]1C(=O)[C@@]2(C)[C@H]([C@H](OC(=O)c3ccccc3)[C@]3(O)C[C@H](OC(=O)[C@H](O)[C@@H](NC(=O)c4ccccc4)c4ccccc4)C(C)=C1C3(C)C)[C@]1(OC(C)=O)CO[C@@H]1C[C@@H]2O [taxol] | not significantly different from vehicle control
COc1cccc2c1C(=O)c1c(O)c3c(c(O)c1C2=O)C[C@@](O)(C(=O)CO)C[C@@H]3O[C@H]1C[C@H](N)[C@H](O)[C@H](C)O1 [doxorubicin] | not significantly different from vehicle control
